Measured values: PMC7531004, “Discovery of gramicidin A analogues with altered activities by multidimensional screening of a one-bead-one-compound library” (Nature Communications, 2020)
Where a SMILES comes first, the peptide text is derived from it. [ ]: non-standard residue; d: D form. The star is where a group is joined. NHCH2CH2OH = OCCN*; For = O=C*

Tests used:
[1] = cell viability/%
Procedure, shortened: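 First, library peptide stocks are diluted 250-fold in RPMI1640 with 10% heat-inactivated FBS. Next, they are mixed with P388 cells to give 1 × 10^4 cells/mL and incubated 92 h at 37 °C, 5% CO2. Finally, viability (%) is scored by WST-1 absorbance at 415 nm.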

[2] = test system: Streptococcus pyogenes SSI-9; assay: Antibacterial activity assay of bead-derived peptides (three concentrations); format: cell-based; design: key: +++: inhibition by the 640-fold diluted peptide solution; ++: inhibition by the 160-fold diluted solution; +: inhibition by the 40-fold diluted solution; -: no inhibition; settings: S. pyogenes, bead-derived peptide solution, three concentrations
Procedure, shortened: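 Bead-derived library peptide stocks in DMSO were tested undiluted and after 4- and 16-fold DMSO dilution against S. pyogenes SSI-9 (2 × 10^5 CFU/well) in cation-adjusted Mueller Hinton Broth with 5% laked horse blood. After 18 h at 37 °C, wells were scored for precipitation of grown cells.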

[3] = H+/Na+ transport assay of bead-derived peptides (one-point); format: biochemical; design: key: relative activity; mean of two control wells = 1.00; settings: bead-derived peptide solution, EYPC/EYPG LUVs;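 also: relative to parent gramicidin A activity set to 1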
Procedure, shortened: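 Pyranine (1.0 mM)-loaded LUVs containing egg yolk phosphatidylglycerol were prepared by film hydration, sonication and extrusion, then mixed with diluted bead-derived peptide in 96-well format and vortexed 30 min at room temperature. Fluorescence was normalized between untreated LUVs (0%) and Triton X-100 lysis (100%).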

Row | SMILES | viability [1] | antibacterial activity [2] | H+/Na+ transport activity normalized against the value of 1 (1.00) [3]
1 | CC(C)[C@H](NC=O)C(=O)NCC(=O)N[C@@H](C)C(=O)N[C@@H](C(=O)N[C@@H](C)C(=O)N[C@@H](C(=O)N[C@H](C(=O)N[C@@H](C(=O)N[C@@H](Cc1c[nH]c2ccccc12)C(=O)N[C@@H](C(=O)N[C@@H](Cc1c[nH]c2ccccc12)C(=O)N[C@@H](C(=O)N[C@@H](Cc1c[nH]c2ccccc12)C(=O)N[C@@H](C(=O)N[C@@H](Cc1c[nH]c2ccccc12)C(=O)NCCO)C(C)C)C(C)C)C(C)C)C(C)C)C(C)C)C(C)C)C(C)C [compound 4223] (For-VGA[dV]A[dV]V[dV]W[dV]W[dV]W[dV]W-NHCH2CH2OH) | 95.6% | + | 1.09
2 | CC(C)C[C@@H](NC(=O)[C@H](C)NC(=O)[C@H](NC(=O)[C@H](C)NC(=O)CNC(=O)[C@@H](NC=O)C(C)C)C(C)C)C(=O)N[C@H](C(=O)N[C@@H](C(=O)N[C@@H](Cc1c[nH]c2ccccc12)C(=O)N[C@@H](C(=O)N[C@@H](Cc1c[nH]c2ccccc12)C(=O)N[C@@H](C(=O)N[C@@H](Cc1c[nH]c2ccccc12)C(=O)N[C@@H](C(=O)N[C@@H](Cc1c[nH]c2ccccc12)C(=O)NCCO)C(C)C)[C@H](C)O)C(C)C)C(C)C)C(C)C [compound 4258] (For-VGA[dV]A[dL]V[dV]W[dV]W[dT]W[dV]W-NHCH2CH2OH) | 85.9% | - | 1.00
3 | CC(C)C[C@@H](NC(=O)[C@H](C)NC(=O)CNC(=O)[C@@H](NC=O)C(C)C)C(=O)N[C@@H](C)C(=O)N[C@@H](C(=O)N[C@H](C(=O)N[C@@H](C(=O)N[C@@H](Cc1c[nH]c2ccccc12)C(=O)N[C@H](CC(C)C)C(=O)N[C@@H](Cc1c[nH]c2ccccc12)C(=O)N[C@@H](C(=O)N[C@@H](Cc1c[nH]c2ccccc12)C(=O)N[C@H](CC(C)C)C(=O)N[C@@H](Cc1c[nH]c2ccccc12)C(=O)NCCO)C(C)C)C(C)C)C(C)C)C(C)C [compound 3861] (For-VGA[dL]A[dV]V[dV]W[dL]W[dV]W[dL]W-NHCH2CH2OH) | 0.1% | ++ | 1.51
4 | CC(C)C[C@@H](NC(=O)[C@H](C)NC(=O)[C@H](NC(=O)[C@H](C)NC(=O)CNC(=O)[C@@H](NC=O)C(C)C)C(C)C)C(=O)N[C@H](C(=O)N[C@H](CC(C)C)C(=O)N[C@@H](Cc1c[nH]c2ccccc12)C(=O)N[C@H](CC(C)C)C(=O)N[C@@H](Cc1c[nH]c2ccccc12)C(=O)N[C@@H](C(=O)N[C@@H](Cc1c[nH]c2ccccc12)C(=O)N[C@H](CC(C)C)C(=O)N[C@@H](Cc1c[nH]c2ccccc12)C(=O)NCCO)[C@H](C)O)C(C)C [compound 2682] (For-VGA[dV]A[dL]V[dL]W[dL]W[dT]W[dL]W-NHCH2CH2OH) | 100% | + | 1.06
5 | CC(C)C[C@@H](NC(=O)[C@H](C)NC(=O)CNC(=O)[C@@H](NC=O)C(C)C)C(=O)N[C@@H](C)C(=O)N[C@@H](C(=O)N[C@H](C(=O)N[C@@H](C(=O)N[C@@H](Cc1c[nH]c2ccccc12)C(=O)N[C@@H](C(=O)N[C@@H](Cc1c[nH]c2ccccc12)C(=O)N[C@@H](C(=O)N[C@@H](Cc1c[nH]c2ccccc12)C(=O)N[C@@H](C(=O)N[C@@H](Cc1c[nH]c2ccccc12)C(=O)NCCO)[C@H](C)O)C(C)C)C(C)C)C(C)C)C(C)C)C(C)C [compound 762] (For-VGA[dL]A[dV]V[dV]W[dV]W[dV]W[dT]W-NHCH2CH2OH) | 96.8% | - | 1.01
6 | CC(C)C[C@@H](NC(=O)[C@H](C)NC(=O)[C@H](NC(=O)[C@H](C)NC(=O)CNC(=O)[C@@H](NC=O)C(C)C)C(C)C)C(=O)N[C@H](C(=O)N[C@@H](C(=O)N[C@@H](Cc1c[nH]c2ccccc12)C(=O)N[C@H](CC(C)C)C(=O)N[C@@H](Cc1c[nH]c2ccccc12)C(=O)N[C@H](CC(C)C)C(=O)N[C@@H](Cc1c[nH]c2ccccc12)C(=O)N[C@@H](C(=O)N[C@@H](Cc1c[nH]c2ccccc12)C(=O)NCCO)C(C)C)[C@H](C)O)C(C)C [compound 6160] (For-VGA[dV]A[dL]V[dT]W[dL]W[dL]W[dV]W-NHCH2CH2OH) | 70.3% | + | 1.07
7 | CC(C)C[C@@H](NC(=O)[C@H](C)NC(=O)[C@H](NC(=O)[C@H](C)NC(=O)CNC(=O)[C@@H](NC=O)C(C)C)C(C)C)C(=O)N[C@H](C(=O)N[C@@H](C(=O)N[C@@H](Cc1c[nH]c2ccccc12)C(=O)N[C@@H](C(=O)N[C@@H](Cc1c[nH]c2ccccc12)C(=O)N[C@H](CC(C)C)C(=O)N[C@@H](Cc1c[nH]c2ccccc12)C(=O)N[C@@H](C(=O)N[C@@H](Cc1c[nH]c2ccccc12)C(=O)NCCO)C(C)C)C(C)C)C(C)C)C(C)C [compound 11268] (For-VGA[dV]A[dL]V[dV]W[dV]W[dL]W[dV]W-NHCH2CH2OH) | 100% | + | 1.06
8 | CC(C)C[C@@H](NC(=O)[C@H](C)NC(=O)CNC(=O)[C@@H](NC=O)C(C)C)C(=O)N[C@@H](C)C(=O)N[C@@H](C(=O)N[C@H](C(=O)N[C@H](CC(C)C)C(=O)N[C@@H](Cc1c[nH]c2ccccc12)C(=O)N[C@@H](C(=O)N[C@@H](Cc1c[nH]c2ccccc12)C(=O)N[C@@H](C(=O)N[C@@H](Cc1c[nH]c2ccccc12)C(=O)N[C@H](CC(C)C)C(=O)N[C@@H](Cc1c[nH]c2ccccc12)C(=O)NCCO)[C@H](C)O)C(C)C)C(C)C)C(C)C [compound 201] (For-VGA[dL]A[dV]V[dL]W[dV]W[dT]W[dL]W-NHCH2CH2OH) | 100% | - | 1.06
9 | CNC(=O)C[C@@H](NC(=O)[C@@H](NC(=O)[C@H](NC(=O)[C@H](C)NC(=O)[C@@H](CC(C)C)NC(=O)[C@H](C)NC(=O)CNC(=O)[C@@H](NC=O)C(C)C)C(C)C)C(C)C)C(=O)N[C@@H](Cc1c[nH]c2ccccc12)C(=O)N[C@H](CC(C)C)C(=O)N[C@@H](Cc1c[nH]c2ccccc12)C(=O)N[C@@H](C(=O)N[C@@H](Cc1c[nH]c2ccccc12)C(=O)N[C@@H](C(=O)N[C@@H](Cc1c[nH]c2ccccc12)C(=O)NCCO)C(C)C)C(C)C [compound 2195] (For-VGA[dL]A[dV]V[dD](NHMe)W[dL]W[dV]W[dV]W-NHCH2CH2OH) | 100% | - | 1.34
10 | CC(C)C[C@@H](NC(=O)[C@H](C)NC(=O)[C@H](NC(=O)[C@H](C)NC(=O)CNC(=O)[C@@H](NC=O)C(C)C)C(C)C)C(=O)N[C@H](C(=O)N[C@@H](C(=O)N[C@@H](Cc1c[nH]c2ccccc12)C(=O)N[C@@H](C(=O)N[C@@H](Cc1c[nH]c2ccccc12)C(=O)N[C@H](CC(C)C)C(=O)N[C@@H](Cc1c[nH]c2ccccc12)C(=O)N[C@H](CC(C)C)C(=O)N[C@@H](Cc1c[nH]c2ccccc12)C(=O)NCCO)C(C)C)C(C)C)C(C)C [compound 1406] (For-VGA[dV]A[dL]V[dV]W[dV]W[dL]W[dL]W-NHCH2CH2OH) | 91.1% | + | 1.04
11 | CC(C)C[C@@H](NC(=O)[C@H](Cc1c[nH]c2ccccc12)NC(=O)[C@@H](CC(C)C)NC(=O)[C@H](Cc1c[nH]c2ccccc12)NC(=O)[C@@H](CC(C)C)NC(=O)[C@H](Cc1c[nH]c2ccccc12)NC(=O)[C@H](NC(=O)[C@@H](NC(=O)[C@H](NC(=O)[C@H](C)NC(=O)[C@H](NC(=O)[C@H](C)NC(=O)CNC(=O)[C@@H](NC=O)C(C)C)C(C)C)C(C)C)C(C)C)[C@H](C)O)C(=O)N[C@@H](Cc1c[nH]c2ccccc12)C(=O)NCCO [compound 10353] (For-VGA[dV]A[dV]V[dT]W[dL]W[dL]W[dL]W-NHCH2CH2OH) | 100% | - | 1.02
12 | CC(C)C[C@@H](NC(=O)[C@H](C)NC(=O)CNC(=O)[C@@H](NC=O)C(C)C)C(=O)N[C@@H](C)C(=O)N[C@H](CC(C)C)C(=O)N[C@H](C(=O)N[C@@H](C(=O)N[C@@H](Cc1c[nH]c2ccccc12)C(=O)N[C@@H](C(=O)N[C@@H](Cc1c[nH]c2ccccc12)C(=O)N[C@@H](C(=O)N[C@@H](Cc1c[nH]c2ccccc12)C(=O)N[C@@H](C(=O)N[C@@H](Cc1c[nH]c2ccccc12)C(=O)NCCO)[C@H](C)O)C(C)C)C(C)C)C(C)C)C(C)C [compound 2793] (For-VGA[dL]A[dL]V[dV]W[dV]W[dV]W[dT]W-NHCH2CH2OH) | 84.6% | - | 1.08
13 | CC(C)C[C@@H](NC(=O)[C@H](C)NC(=O)CNC(=O)[C@@H](NC=O)C(C)C)C(=O)N[C@@H](C)C(=O)N[C@H](CC(C)C)C(=O)N[C@H](C(=O)N[C@H](CC(C)C)C(=O)N[C@@H](Cc1c[nH]c2ccccc12)C(=O)N[C@@H](C(=O)N[C@@H](Cc1c[nH]c2ccccc12)C(=O)N[C@H](CC(C)C)C(=O)N[C@@H](Cc1c[nH]c2ccccc12)C(=O)N[C@@H](C(=O)N[C@@H](Cc1c[nH]c2ccccc12)C(=O)NCCO)C(C)C)[C@H](C)O)C(C)C [compound 5561] (For-VGA[dL]A[dL]V[dL]W[dT]W[dL]W[dV]W-NHCH2CH2OH) | 100% | - | 1.05
